Data on 27 compounds can be found in US20240228506A1, “RIPK1 INHIBITORS AND METHODS OF USE” (Merck Sharp & Dohme LLC, priority 2021, published 2024).

In this test the target is T1, GST-RIPK1 (recombinant GST-RIPK1 kinase domain (residues 1-327)) (Homo sapiens, UniProt Q13546).
T1 construct: recombinant GST-RIPK1 kinase domain (residues 1-327) enzyme; made in house; host or cells: baculovirus-transfected Sf21 insect cells
T1 sequence (Q13546 1-327): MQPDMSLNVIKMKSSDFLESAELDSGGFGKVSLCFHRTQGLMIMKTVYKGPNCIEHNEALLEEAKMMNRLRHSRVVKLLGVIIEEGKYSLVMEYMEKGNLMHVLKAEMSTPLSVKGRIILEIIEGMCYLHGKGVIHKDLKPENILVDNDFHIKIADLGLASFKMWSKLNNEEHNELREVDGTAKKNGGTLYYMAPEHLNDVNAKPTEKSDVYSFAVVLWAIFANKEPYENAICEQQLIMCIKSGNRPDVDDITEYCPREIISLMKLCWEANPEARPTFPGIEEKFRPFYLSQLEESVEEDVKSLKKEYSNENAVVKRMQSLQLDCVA
Kind of test: RIPK1-ADP-Glo enzymatic assay. It counts as biochemical. The conditions noted are these: 25 nM GST-RIPK1, 300 μM ATP, 3 μM dephosphorylated-MBP; 30 minutes pre-incubation, 150 minutes reaction; ten-point titration. The method, boiled down: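 Ten-point 1:3 titrations from 100000 nM, 1% DMSO, were preincubated 30 min with 25 nM GST-RIPK1 (1-327) before starting with 300 μM ATP plus 3 μM dephosphorylated MBP; 150 min reaction. ADP-Glo luminescence measured ATP-to-ADP conversion; EC50 by four-parameter sigmoidal regression.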
(In ADP-Glo the light output rises with the ADP produced.)

One may read the pIC50 as −log10 of the IC50, conventionally taken in molar units.

pIC50: −log10 of the molar value.

For the compound `N#Cc1cncc2c1O[C@H]1C[C@@H]2N(C(=O)C23CCC(CC2)C3)C1` [Compound 1-6, (2S,5S)-4-(bicyclo[2.2.1]heptane-1-carbonyl)-2,3,4,5-tetrahydro-2,5-methanopyrido[3,4-f][1,4]oxazepine-9-carbonitrile], the pIC50 is 7.96.

For the compound `COc1ccc(C#Cc2cncc3c2O[C@H]2C[C@@H]3N(C(=O)C(C)(C)C(F)F)C2)cn1` [Compound 2-92, 3,3-difluoro-1-((2S,5S)-9-((6-methoxypyridin-3-yl)ethynyl)-2,3-dihydro-2,5-methanopyrido[3,4-f][1,4]oxazepin-4(5H)-yl)-2,2-dimethylpropan-1-one], the pIC50 is 7.72.

For the compound `N#Cc1cncc2c1O[C@H]1C[C@@H]2N(C(=O)C2(F)CC(Oc3ccc(F)cc3F)C2)C1` (single isomer, unassigned) [Compound 1-107, (2S,5S)-4-(3-(2,4-difluorophenoxy)-1-(R or S)-fluorocyclobutane-1-carbonyl)-2,3,4,5-tetrahydro-2,5-methanopyrido[3,4-f][1,4]oxazepine-9-carbonitrile], the pIC50 was 7.64.

Regarding `O=C(N1C[C@@H]2C[C@H]1c1cncc(F)c1O2)C12CCC(F)(CC1)C2` [Compound 2-7, (4-fluorobicyclo[2.2.1]heptan-1-yl)[(2S,5S)-9-fluoro-2,3-dihydro-2,5-methanopyrido[3,4-f][1,4]oxazepin-4(5H)-yl]methanone], the pIC50 is 7.59.

As for `N#Cc1cncc2c1O[C@H]1C[C@@H]2N(C(=O)C2(C#N)CCC2)C1` [Compound 1-110, (2S,5S)-4-(1-cyanocyclobutane-1-carbonyl)-2,3,4,5-tetrahydro-2,5-methanopyrido[3,4-f][1,4]oxazepine-9-carbonitrile], the pIC50 was 6.89.

With `CC(C)(C(=O)N1C[C@@H]2C[C@H]1c1cncc(C#Cc3ncco3)c1O2)C(F)F` [Compound 2-72], the pIC50 is 7.17.

For the compound `CC(C)(C(=O)N1C[C@@H]2C[C@H]1c1cncc(C#Cc3cncnc3)c1O2)C(F)F` [Compound 2-45, 3,3-difluoro-2,2-dimethyl-1-((2S,5S)-9-(pyrimidin-5-ylethynyl)-2,3-dihydro-2,5-methanopyrido[3,4-f][1,4]oxazepin-4(5H)-yl)propan-1-one], the pIC50 was 7.49.

With `CC(F)(F)C1(C(=O)N2C[C@@H]3C[C@H]2c2cncc(C#N)c2O3)CC1` [Compound 1-27, (2S,5S)-4-[1-(1,1-difluoroethyl)cyclopropane-1-carbonyl]-2,3,4,5-tetrahydro-2,5-methanopyrido[3,4-f][1,4]oxazepine-9-carbonitrile], the pIC50 was 6.66.

On to `CC(C)(C(=O)N1C[C@@H]2C[C@H]1c1cncc(C#Cc3cnccn3)c1O2)C(F)F` [Compound 2-49, 3,3-difluoro-2,2-dimethyl-1-((2S,5S)-9-(pyrazin-2-ylethynyl)-2,3-dihydro-2,5-methanopyrido[3,4-f][1,4]oxazepin-4(5H)-yl)propan-1-one], for which the pIC50 is 7.08.

Consider `CC(C)(C(=O)N1C[C@@H]2C[C@H]1c1cncc(C#Cc3ccc(C4CC4)nc3)c1O2)C(F)F` [Compound 2-83, 1-((2S,5S)-9-((6-cyclopropylpyridin-3-yl)ethynyl)-2,3-dihydro-2,5-methanopyrido[3,4-f][1,4]oxazepin-4(5H)-yl)-3,3-difluoro-2,2-dimethylpropan-1-one], for which the pIC50 was 7.62.

Turning to `CC1(C(=O)N2C[C@@H]3C[C@H]2c2cncc(C#N)c2O3)CCCC1(F)F` (single isomer, unassigned) [Compound 1-38], the pIC50 is 7.68.

Regarding `CC(F)(F)C(C)(C)C(=O)N1C[C@@H]2C[C@H]1c1cncc(F)c1O2` [Compound 2-22, 3,3-difluoro-1-((2S,5S)-9-fluoro-2,3-dihydro-2,5-methanopyrido[3,4-f][1,4]oxazepin-4(5H)-yl)-2,2-dimethylbutan-1-one], the pIC50 is 7.17.

`N#Cc1cncc2c1O[C@H]1C[C@@H]2N(C(=O)C23CCC(CC2(F)F)C3)C1` (single isomer, unassigned) [Compound 1-48, (2S,5S)-4-[(S or R)-2,2-difluorobicyclo[2.2.1]heptane-1-carbonyl]-2,3,4,5-tetrahydro-2,5-methanopyrido[3,4-f][1,4]oxazepine-9-carbonitrile]: the negative logarithm of the IC50 (pIC50) is 8.30.

On to `COc1ccc2cc(C#Cc3cncc4c3O[C@H]3C[C@@H]4N(C(=O)C(C)(C)C)C3)ccc2c1` [Compound 2-38, 1-((2S,5S)-9-((6-methoxynaphthalen-2-yl)ethynyl)-2,3-dihydro-2,5-methanopyrido[3,4-f][1,4]oxazepin-4(5H)-yl)-2,2-dimethylpropan-1-one], for which the pIC50 is 7.60.

For the compound `Cc1ncc2c(n1)O[C@H]1C[C@@H]2N(C(=O)C23CCC(F)(CC2)C3)C1` [Compound 3-4, (4-fluorobicyclo[2.2.1]heptan-1-yl)((5S,8S)-2-methyl-7,8-dihydro-5,8-methanopyrimido[5,4-f][1,4]oxazepin-6(5H)-yl)methanone], the pIC50 was 5.91.

On to `N#Cc1cncc2c1O[C@H]1C[C@@H]2N(C(=O)C23CCC(CC2)OC3)C1` [Compound 1-26, (2S,5S)-4-(2-oxabicyclo[2.2.2]octane-4-carbonyl)-2,3,4,5-tetrahydro-2,5-methanopyrido[3,4-f][1,4]oxazepine-9-carbonitrile], for which the pIC50 was 6.50.

For the compound `CC1(C(=O)N2C[C@@H]3C[C@H]2c2cncc(C#N)c2O3)CCC(F)(F)C1` (stereo partly drawn) [Compound 1-30, (2S,5S)-4-(3,3-difluoro-1-methylcyclopentane-1-carbonyl)-2,3,4,5-tetrahydro-2,5-methanopyrido[3,4-f][1,4]oxazepine-9-carbonitrile], the pIC50 was 7.18.

In the case of `O=C(N1C[C@@H]2C[C@H]1c1cncc(C#Cc3ccncn3)c1O2)C12CCC(C(F)(F)F)(CC1)C2` [Compound 2-67, ((2S,5S)-9-(pyrimidin-4-ylethynyl)-2,3-dihydro-2,5-methanopyrido[3,4-f][1,4]oxazepin-4(5H)-yl)(4-(trifluoromethyl)bicyclo [2.2.1]heptan-1-yl)methanone], the pIC50 is 7.49.

For the compound `N#Cc1cncc2c1O[C@H]1C[C@@H]2N(C(=O)C2(F)CCN(c3nccn4ncnc34)CC2)C1` [Compound 1-58, (2S,5S)-4-(1-([1,2,4]triazolo[1,5-a]pyrazin-8-yl)-4-fluoropiperidine-4-carbonyl)-2,3,4,5-tetrahydro-2,5-methanopyrido[3,4-f][1,4]oxazepine-9-carbonitrile], the pIC50 was 7.13.

For `CC1(C(=O)N2C[C@@H]3C[C@H]2c2cncc(C#N)c2O3)CC1C(F)(F)F` (stereo partly drawn) [Compound 1-46, (2S,5S)-4-[1-methyl-2-(trifluoromethyl)cyclopropane-1-carbonyl]-2,3,4,5-tetrahydro-2,5-methanopyrido[3,4-f][1,4]oxazepine-9-carbonitrile], the pIC50 is 7.11.

Consider `C#Cc1cncc2c1O[C@H]1C[C@@H]2N(C(=O)C23CCC(C(F)(F)F)(CC2)C3)C1` [Compound 2-33, ((2S,5S)-9-ethynyl-2,3-dihydro-2,5-methanopyrido[3,4-f][1,4]oxazepin-4(5H)-yl)(4-(trifluoromethyl)bicyclo [2.2.1]heptan-1-yl)methanone], for which the pIC50 is 7.42.

In the case of `O=C(N1C[C@@H]2C[C@H]1c1cncc(C#Cc3cncnc3)c1O2)C12CCC(C(F)(F)F)(CC1)C2` [Compound 2-50, ((2S,5S)-9-(Pyrimidin-5-ylethynyl)-2,3-dihydro-2,5-methanopyrido[3,4-f][1,4]oxazepin-4(5H)-yl)(4-(trifluoromethyl)bicyclo[2.2.1]heptan-1-yl)methanone], the pIC50 was 7.82.

On to `CC(C)(C(=O)N1C[C@@H]2C[C@H]1c1cncc(C#CCn3nnc4ccccc43)c1O2)C(F)F` [Compound 2-40, 1-((2S,5S)-9-(3-(1H-benzo[d][1,2,3]triazol-1-yl)prop-1-yn-1-yl)-2,3-dihydro-2,5-methanopyrido[3,4-f][1,4]oxazepin-4(5H)-yl)-3,3-difluoro-2,2-dimethylpropan-1-one], for which the pIC50 was 6.85.

With `CC(C)(C(=O)N1C[C@@H]2C[C@H]1c1cncc(C#N)c1O2)C(F)(F)F` [Compound 1-9, (2S,5S)-4-(3,3,3-trifluoro-2,2-dimethylpropanoyl)-2,3,4,5-tetrahydro-2,5-methanopyrido[3,4-f][1,4]oxazepine-9-carbonitrile], the pIC50 was 7.70.

For the compound `CC(C)C#Cc1cncc2c1O[C@H]1C[C@@H]2N(C(=O)C(C)(C)C(F)F)C1` [Compound 2-106, 3,3-Difluoro-2,2-dimethyl-1-((2S,5S)-9-(3-methylbut-1-yn-1-yl)-2,3-dihydro-2,5-methanopyrido[3,4-f][1,4]oxazepin-4(5H)-yl)propan-1-one], the negative-log IC50 (pIC50) was 6.71.

On to `COC1(C(=O)N2C[C@@H]3C[C@H]2c2cncc(C#N)c2O3)CCCC1` [Compound 1-65, (2S,5S)-4-(1-methoxycyclopentane-1-carbonyl)-2,3,4,5-tetrahydro-2,5-methanopyrido[3,4-f][1,4]oxazepine-9-carbonitrile], for which the pIC50 was 7.12.

In the case of `CC(C)(CC(F)(F)F)C(=O)N1C[C@@H]2C[C@H]1c1cncc(C#N)c1O2` [Compound 1-35, (2S,5S)-4-(4,4,4-trifluoro-2,2-dimethylbutanoyl)-2,3,4,5-tetrahydro-2,5-methanopyrido[3,4-f][1,4]oxazepine-9-carbonitrile], the pIC50 was 6.32.
